The target in data set [1] is T1, Protein mono-ADP-ribosyltransferase PARP15 (Homo sapiens, UniProt Q460N3).
T1 sequence (Q460N3 whole entry): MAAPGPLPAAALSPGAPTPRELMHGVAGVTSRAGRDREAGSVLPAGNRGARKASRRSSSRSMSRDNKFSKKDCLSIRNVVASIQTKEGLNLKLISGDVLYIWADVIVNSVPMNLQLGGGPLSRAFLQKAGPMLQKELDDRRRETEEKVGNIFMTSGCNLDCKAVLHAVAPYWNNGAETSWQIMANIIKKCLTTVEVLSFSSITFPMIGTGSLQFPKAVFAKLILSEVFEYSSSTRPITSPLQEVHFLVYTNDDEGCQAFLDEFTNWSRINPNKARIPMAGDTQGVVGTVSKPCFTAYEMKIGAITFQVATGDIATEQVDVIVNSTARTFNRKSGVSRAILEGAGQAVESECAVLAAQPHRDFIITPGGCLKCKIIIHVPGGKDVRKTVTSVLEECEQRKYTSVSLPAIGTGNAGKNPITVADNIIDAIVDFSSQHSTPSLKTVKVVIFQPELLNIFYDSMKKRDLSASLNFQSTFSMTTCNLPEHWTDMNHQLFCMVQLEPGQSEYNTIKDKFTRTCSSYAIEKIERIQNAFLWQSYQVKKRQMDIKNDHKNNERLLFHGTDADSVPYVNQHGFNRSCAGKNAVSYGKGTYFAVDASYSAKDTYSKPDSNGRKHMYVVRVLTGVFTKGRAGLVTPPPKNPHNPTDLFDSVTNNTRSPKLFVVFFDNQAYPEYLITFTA
The data set can be described thus: Inhibition of human N-terminal 6His-tagged PARP15 (460 to 656 residues) expressed in Escherichia coli Rosetta2 (DE3) cells using NAD+ as substrate incubated for 10 mins by fluorescence based analysis.

In data set [2] the target is T2, Protein mono-ADP-ribosyltransferase PARP10 (Homo sapiens, UniProt Q53GL7).
T2 sequence (Q53GL7 whole entry): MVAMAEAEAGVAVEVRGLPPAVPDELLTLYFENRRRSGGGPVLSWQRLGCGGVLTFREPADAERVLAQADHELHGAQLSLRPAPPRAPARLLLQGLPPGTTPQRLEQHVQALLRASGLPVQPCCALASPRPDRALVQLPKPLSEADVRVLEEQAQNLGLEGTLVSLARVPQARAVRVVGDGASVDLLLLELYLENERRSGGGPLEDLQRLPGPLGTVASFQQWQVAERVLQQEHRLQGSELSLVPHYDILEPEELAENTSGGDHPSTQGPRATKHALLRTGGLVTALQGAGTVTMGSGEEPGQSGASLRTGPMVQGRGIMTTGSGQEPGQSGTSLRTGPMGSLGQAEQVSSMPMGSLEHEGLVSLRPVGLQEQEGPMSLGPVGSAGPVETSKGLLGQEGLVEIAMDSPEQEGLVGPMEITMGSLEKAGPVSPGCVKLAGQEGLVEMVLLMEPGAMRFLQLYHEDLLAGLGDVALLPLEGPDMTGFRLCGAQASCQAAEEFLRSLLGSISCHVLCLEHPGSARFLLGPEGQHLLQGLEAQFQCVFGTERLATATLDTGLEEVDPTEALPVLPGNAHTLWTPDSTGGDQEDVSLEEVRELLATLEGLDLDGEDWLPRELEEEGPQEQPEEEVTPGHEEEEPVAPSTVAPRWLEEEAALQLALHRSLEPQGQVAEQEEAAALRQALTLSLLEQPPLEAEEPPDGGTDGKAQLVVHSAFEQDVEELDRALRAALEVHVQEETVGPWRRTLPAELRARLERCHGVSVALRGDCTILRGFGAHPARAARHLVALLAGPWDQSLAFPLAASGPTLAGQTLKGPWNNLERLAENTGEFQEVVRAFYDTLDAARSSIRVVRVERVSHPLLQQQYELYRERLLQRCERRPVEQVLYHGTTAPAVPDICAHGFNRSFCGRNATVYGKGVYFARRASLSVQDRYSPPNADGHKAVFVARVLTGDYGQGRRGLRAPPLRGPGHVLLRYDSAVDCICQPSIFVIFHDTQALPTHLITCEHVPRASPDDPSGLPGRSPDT
The data set can be described thus: Inhibition of human PARP-10 using NAD+ as substrate incubated for 10 mins by fluorescence based analysis.

For a further data set, the system named is HEK-293T. Nature of the data set: Cytotoxicity against HEK293T cells assessed as reduction in cell viability at 10 uM measured after 24 hrs by WST-1 assay. The class given is toxicity, cell-based. To be noted: human.
Data set [3] addresses Protein mono-ADP-ribosyltransferase PARP14 (Homo sapiens, UniProt Q460N5). The data set can be described thus: Inhibition of human PARP14 using NAD+ as substrate incubated for 10 mins by fluorescence based analysis.
In data set [4] the target is Poly [ADP-ribose] polymerase 2 (Homo sapiens, UniProt Q9UGN5). The data set can be described thus: Inhibition of human PARP2 using NAD+ as substrate incubated for 10 mins by fluorescence based analysis.
For data set [5], the target named is T3, Poly [ADP-ribose] polymerase tankyrase-2 (Homo sapiens, UniProt Q9H2K2).
T3 sequence (Q9H2K2 whole entry): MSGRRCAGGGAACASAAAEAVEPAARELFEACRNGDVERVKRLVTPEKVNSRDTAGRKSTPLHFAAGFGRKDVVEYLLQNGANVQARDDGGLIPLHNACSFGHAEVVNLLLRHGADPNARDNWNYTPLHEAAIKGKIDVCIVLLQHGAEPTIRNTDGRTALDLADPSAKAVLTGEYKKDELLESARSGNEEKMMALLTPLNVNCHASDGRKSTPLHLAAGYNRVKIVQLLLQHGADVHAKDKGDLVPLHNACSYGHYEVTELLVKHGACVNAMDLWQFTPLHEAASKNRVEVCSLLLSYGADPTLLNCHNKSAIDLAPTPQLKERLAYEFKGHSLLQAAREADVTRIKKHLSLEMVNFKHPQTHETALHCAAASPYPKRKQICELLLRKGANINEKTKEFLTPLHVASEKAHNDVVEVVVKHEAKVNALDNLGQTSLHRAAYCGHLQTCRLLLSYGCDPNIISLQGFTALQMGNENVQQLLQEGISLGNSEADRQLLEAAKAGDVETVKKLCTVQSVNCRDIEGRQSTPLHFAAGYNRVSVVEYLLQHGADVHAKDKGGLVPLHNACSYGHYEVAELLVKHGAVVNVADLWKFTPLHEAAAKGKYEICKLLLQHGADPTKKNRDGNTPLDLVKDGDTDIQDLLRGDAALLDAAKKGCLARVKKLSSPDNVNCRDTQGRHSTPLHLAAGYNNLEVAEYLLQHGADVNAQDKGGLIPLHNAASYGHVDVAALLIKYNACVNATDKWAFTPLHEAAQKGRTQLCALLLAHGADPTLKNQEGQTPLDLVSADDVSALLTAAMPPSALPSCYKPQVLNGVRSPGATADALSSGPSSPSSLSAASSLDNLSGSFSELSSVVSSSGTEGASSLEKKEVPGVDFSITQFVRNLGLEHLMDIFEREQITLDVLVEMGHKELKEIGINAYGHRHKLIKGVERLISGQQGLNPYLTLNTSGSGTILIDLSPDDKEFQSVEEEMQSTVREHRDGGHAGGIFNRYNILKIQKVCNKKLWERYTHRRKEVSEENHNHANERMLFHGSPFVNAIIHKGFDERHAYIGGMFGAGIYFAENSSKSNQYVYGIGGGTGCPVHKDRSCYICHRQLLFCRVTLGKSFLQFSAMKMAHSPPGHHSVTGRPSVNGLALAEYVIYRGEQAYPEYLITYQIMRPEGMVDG
Nature of the data set: Inhibition of human N-terminal 6His-tagged TNKS2 (1030 to 1317 residues) expressed in Escherichia coli Rosetta2 (DE3) cells using NAD+ as substrate incubated for 10 mins by fluorescence based analysis.

In a further data set the test system is HeLa. Nature of the data set: Rescue of cell viability in human HeLa cells expressing wild type PARP10 at upto 10 uM incubated for 10 to 12 days by methylene blue dye based colony formation assay. The class given is functional.

Molecules are shown by their SMILES. Where only a bound is given, the exact number is not on record here.

Chain of Poly [ADP-ribose] polymerase 2 (Q9UGN5 whole entry): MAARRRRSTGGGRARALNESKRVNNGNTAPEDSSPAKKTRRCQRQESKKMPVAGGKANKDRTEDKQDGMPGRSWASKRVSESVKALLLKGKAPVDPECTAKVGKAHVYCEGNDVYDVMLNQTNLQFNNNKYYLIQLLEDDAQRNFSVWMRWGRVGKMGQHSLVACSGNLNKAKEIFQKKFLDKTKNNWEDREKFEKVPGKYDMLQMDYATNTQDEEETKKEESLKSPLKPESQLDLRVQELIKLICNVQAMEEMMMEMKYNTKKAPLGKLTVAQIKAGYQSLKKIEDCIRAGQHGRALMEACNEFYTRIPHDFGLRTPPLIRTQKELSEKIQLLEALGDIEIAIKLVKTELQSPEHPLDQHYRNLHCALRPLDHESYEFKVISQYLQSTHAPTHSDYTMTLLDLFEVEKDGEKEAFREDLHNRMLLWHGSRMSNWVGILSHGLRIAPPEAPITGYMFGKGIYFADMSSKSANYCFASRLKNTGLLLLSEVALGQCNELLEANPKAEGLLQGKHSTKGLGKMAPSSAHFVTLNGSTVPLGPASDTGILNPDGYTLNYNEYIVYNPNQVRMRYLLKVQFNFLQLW
Chain of Protein mono-ADP-ribosyltransferase PARP14 (Q460N5 whole entry): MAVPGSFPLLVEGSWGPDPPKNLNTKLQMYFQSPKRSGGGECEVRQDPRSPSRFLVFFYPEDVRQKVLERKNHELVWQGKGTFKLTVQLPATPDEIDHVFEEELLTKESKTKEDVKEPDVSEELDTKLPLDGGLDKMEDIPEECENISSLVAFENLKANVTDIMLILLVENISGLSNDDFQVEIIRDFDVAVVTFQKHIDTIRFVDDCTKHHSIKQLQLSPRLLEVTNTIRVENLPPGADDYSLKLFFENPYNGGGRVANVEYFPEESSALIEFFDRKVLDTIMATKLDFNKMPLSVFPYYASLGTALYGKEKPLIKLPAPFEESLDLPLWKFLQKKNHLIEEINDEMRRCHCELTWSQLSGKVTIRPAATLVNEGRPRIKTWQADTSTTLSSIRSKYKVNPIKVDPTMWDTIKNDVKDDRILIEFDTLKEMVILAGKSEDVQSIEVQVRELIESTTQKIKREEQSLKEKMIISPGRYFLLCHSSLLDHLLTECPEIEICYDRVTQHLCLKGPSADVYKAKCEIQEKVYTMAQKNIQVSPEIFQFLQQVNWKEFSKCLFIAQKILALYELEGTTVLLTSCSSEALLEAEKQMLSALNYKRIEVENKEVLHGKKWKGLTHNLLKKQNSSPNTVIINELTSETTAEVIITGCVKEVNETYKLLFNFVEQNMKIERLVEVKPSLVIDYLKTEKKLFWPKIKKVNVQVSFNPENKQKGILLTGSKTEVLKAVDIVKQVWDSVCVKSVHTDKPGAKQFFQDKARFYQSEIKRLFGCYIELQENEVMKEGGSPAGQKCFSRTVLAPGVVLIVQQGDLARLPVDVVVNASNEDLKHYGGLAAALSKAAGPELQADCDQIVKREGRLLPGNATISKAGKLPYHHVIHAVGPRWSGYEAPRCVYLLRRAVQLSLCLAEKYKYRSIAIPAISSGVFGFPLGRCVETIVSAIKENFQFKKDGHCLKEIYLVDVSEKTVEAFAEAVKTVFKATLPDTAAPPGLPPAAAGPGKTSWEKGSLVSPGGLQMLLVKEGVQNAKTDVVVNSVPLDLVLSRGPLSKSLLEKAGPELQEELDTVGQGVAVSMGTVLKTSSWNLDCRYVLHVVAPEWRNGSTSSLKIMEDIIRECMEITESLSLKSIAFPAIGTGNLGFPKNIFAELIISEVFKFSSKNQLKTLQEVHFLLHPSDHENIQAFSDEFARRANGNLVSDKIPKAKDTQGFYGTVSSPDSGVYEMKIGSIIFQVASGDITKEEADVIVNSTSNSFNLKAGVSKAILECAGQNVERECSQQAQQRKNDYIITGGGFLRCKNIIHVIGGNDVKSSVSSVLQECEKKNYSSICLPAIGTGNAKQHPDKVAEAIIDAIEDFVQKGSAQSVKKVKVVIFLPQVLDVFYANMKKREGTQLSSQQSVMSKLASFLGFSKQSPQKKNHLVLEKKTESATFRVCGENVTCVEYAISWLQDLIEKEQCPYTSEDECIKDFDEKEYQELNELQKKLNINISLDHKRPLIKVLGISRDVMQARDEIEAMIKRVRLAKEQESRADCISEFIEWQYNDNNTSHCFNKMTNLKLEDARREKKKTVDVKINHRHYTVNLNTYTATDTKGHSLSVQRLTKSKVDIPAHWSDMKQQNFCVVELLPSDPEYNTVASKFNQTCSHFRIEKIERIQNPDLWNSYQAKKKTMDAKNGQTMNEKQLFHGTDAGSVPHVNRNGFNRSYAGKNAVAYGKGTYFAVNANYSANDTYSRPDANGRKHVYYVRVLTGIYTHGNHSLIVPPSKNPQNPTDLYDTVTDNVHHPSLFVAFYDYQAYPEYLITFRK

Turning to `O=c1[nH][nH]c(=O)c2cc(OCc3cccc(Br)c3)ccc12`, the IC50 was 1.3 µM in data set [1]; 1.2 µM in data set [2]; above 100 µM in data set [3]; above 100 µM in data set [4]; above 100 µM in data set [5]. Also, in the data set on HEK-293T, the Activity entry is “Non-Toxic”.
For `NC(=O)c1ccc(OCC2CCCCC2)cc1OCc1ccccn1`, the half-maximal inhibitory concentration (IC50) is above 10 µM in data set [1]; above 10 µM in data set [2]; above 10 µM in data set [3]; above 100 µM in data set [4]; above 100 µM in data set [5]. In addition, the Activity result in the data set on HEK-293T is “Non-Toxic”.
As for `COc1ccccc1COc1ccc(C(N)=O)c(F)c1`, the IC50 in data set [1] is above 10 µM; in data set [2], 8.2 µM; in data set [3], 6.8 µM; in data set [4], above 100 µM; in data set [5], above 100 µM. The Activity entry in the data set with HEK-293T is on record as “Non-Toxic”.
Turning to `COc1cc(OCc2cccc3ccccc23)ccc1C(N)=O`, the IC50 in data set [1] was 2.2 µM; in data set [2], 5 µM; in data set [3] it was above 100 µM; in data set [4], above 100 µM; in data set [5] it was above 100 µM. Further, in the data set on HEK-293T, the Activity entry is recorded as “Non-Toxic”.
As for `NC(=O)c1ccc(OCC2CCCCC2)cc1`, the concentration for half-maximal inhibition (IC50) in data set [1] was 3.6 µM; in data set [2], 1.7 µM; in data set [3] it was above 100 µM; in data set [4], above 100 µM; in data set [5] it was above 100 µM. For the same molecule, in the data set on HEK-293T, the Activity entry was “Non-Toxic”.
Consider `NC(=O)c1ccc(OCC2CCC2)cc1OCCN1CCNCC1`, for which the half-inhibitory concentration (IC50) in data set [1] is above 10 µM; in data set [2], above 10 µM; in data set [3] it was above 10 µM; in data set [4], above 100 µM; in data set [5] it was above 100 µM. The Activity result with HEK-293T is listed as “Non-Toxic”.
Take `O=c1[nH][nH]c(=O)c2cc(OCC3CC3)ccc12`: the half-maximal inhibitory concentration (IC50) in data set [1] was 1.2 µM; in data set [2] it was 0.31 µM; in data set [3], above 10 µM; in data set [4], above 100 µM; in data set [5], above 100 µM. In the data set on HEK-293T, the Activity result is “Non-Toxic”.
In the data set on HeLa, `O=c1[nH][nH]c(=O)c2cc(OCC3CCCCC3)ccc12` registered an EC50 of 1.5 µM. Besides, the IC50 in data set [1] is 0.4 µM; in data set [2], 0.14 µM. Besides, in the data set on HEK-293T, the Activity entry is reported as “Non-Toxic”.
Take `NC(=O)c1ccc(OCC2CCC2)cc1F`: the IC50 in data set [1] is 6 µM; in data set [2] it was 0.62 µM; in data set [3], above 10 µM; in data set [4] it was above 100 µM; in data set [5], above 100 µM. For the same molecule, the Activity result in the data set with HEK-293T is given as “Non-Toxic”.
For `NC(=O)c1ccc(OCc2cncs2)cc1`, the IC50 in data set [1] was 2.4 µM; in data set [2], 1.6 µM; in data set [3], above 10 µM; in data set [4] it was above 100 µM; in data set [5] it was above 100 µM. For the same molecule, the Activity entry in the data set with HEK-293T is “Non-Toxic”.
Consider `COc1cc(OCC2CCCCC2)ccc1C(N)=O`, for which the half-inhibitory concentration (IC50) in data set [1] was 5 µM; in data set [2] it was 4.4 µM; in data set [3] it was above 100 µM; in data set [4] it was above 100 µM; in data set [5], above 100 µM. Besides, the Activity entry in the data set with HEK-293T was “Non-Toxic”.
As for `NC(=O)c1ccc(OCc2cccc(Br)c2)cc1F`, the concentration for half-maximal inhibition (IC50) in data set [1] was 0.6 µM; in data set [2], 1.5 µM; in data set [3], above 10 µM; in data set [4], above 100 µM; in data set [5] it was above 100 µM. Besides, the Activity result in the data set with HEK-293T was “Non-Toxic”.
For `O=c1[nH][nH]c(=O)c2cc(OCC3CCC3)ccc12`, the IC50 in data set [1] is 0.37 µM; in data set [2] it was 0.16 µM; in data set [3], above 10 µM; in data set [4] it was above 100 µM; in data set [5] it was above 100 µM. Besides, the Activity result in the data set on HEK-293T is given as “Non-Toxic”.
Turning to `O=c1[nH][nH]c(=O)c2cc(OCC3CCCC3)ccc12`, the IC50 is 0.32 µM in data set [1]; 0.13 µM in data set [2]; above 10 µM in data set [3]; above 100 µM in data set [4]; above 100 µM in data set [5]. In addition, the Activity result with HEK-293T was “Non-Toxic”.
As for `COc1cc(OCc2cccc(Br)c2)ccc1C(N)=O`, the 50% inhibitory concentration (IC50) in data set [1] was 2.5 µM; in data set [2] it was above 10 µM; in data set [3] it was above 100 µM; in data set [4], above 100 µM; in data set [5], above 100 µM. Also, the Activity result in the data set with HEK-293T was “Non-Toxic”.
In the case of `NC(=O)c1ccc(OCC2CC2)cc1`, the IC50 in data set [1] was 4.8 µM; in data set [2], 0.6 µM; in data set [3] it was above 10 µM; in data set [4], 53 µM; in data set [5], above 100 µM. Besides, in the data set on HEK-293T, the Activity result is reported as “Non-Toxic”.
As to `NC(=O)c1ccc(OCC2CCCCC2)cc1F`, the half-maximal inhibitory concentration (IC50) in data set [1] is above 10 µM; in data set [2] it was 0.96 µM; in data set [3] it was above 10 µM; in data set [4] it was above 100 µM; in data set [5] it was above 100 µM. Also, the Activity result in the data set on HEK-293T is on record as “Non-Toxic”.
As to `NC(=O)c1ccc(OCC2CCCC2)cc1`, the concentration for half-maximal inhibition (IC50) is 3.8 µM in data set [1]; 0.59 µM in data set [2]; above 10 µM in data set [3]; above 100 µM in data set [4]; above 100 µM in data set [5]. In addition, the Activity entry in the data set with HEK-293T is given as “Non-Toxic”.
